One experiment has as its system INS1. The experiment can be described thus: beta cell apoptosis inhibitors, cytokine rescue, dose response, luminescence, retest (AID 449756).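 Further: cell death triggered by IL-1 beta plus TNF-alpha plus IFN-gamma mixture; protective hits raise ATP signal compared with cytokine alone wells.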 The settings on record: Rattus norvegicus, INS1. The format is functional, cell-based.
Experiment [1] has as its target T1, Heat shock factor protein 1 (Mus musculus, UniProt P38532).
T1 sequence (P38532 whole entry): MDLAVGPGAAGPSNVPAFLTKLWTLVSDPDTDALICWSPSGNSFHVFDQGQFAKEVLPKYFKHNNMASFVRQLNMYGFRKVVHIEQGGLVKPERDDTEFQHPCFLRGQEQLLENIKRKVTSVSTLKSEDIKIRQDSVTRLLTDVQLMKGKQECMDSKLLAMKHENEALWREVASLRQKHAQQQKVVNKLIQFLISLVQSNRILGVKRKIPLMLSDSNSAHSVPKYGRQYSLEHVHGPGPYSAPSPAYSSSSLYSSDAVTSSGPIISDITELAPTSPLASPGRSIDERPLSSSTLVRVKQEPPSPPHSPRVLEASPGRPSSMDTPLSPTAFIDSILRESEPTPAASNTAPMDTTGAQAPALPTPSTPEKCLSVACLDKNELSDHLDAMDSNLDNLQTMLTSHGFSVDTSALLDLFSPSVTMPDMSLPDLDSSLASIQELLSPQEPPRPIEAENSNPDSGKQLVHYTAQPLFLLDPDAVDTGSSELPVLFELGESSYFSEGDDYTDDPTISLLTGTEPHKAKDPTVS
The experiment in a line: inhibition of MG132-induced HSE-luciferase signal, confirmation, cell-based, NIH3T3, luminescence, dose retest (AID 2382).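 Further: NIH3T3 fibroblasts with HSF1-driven luciferase reporter stressed by proteasome inhibitor MG132; luminescence from HSF1-driven luciferase expression after 8 hours of MG132 stress.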 The format is functional.

Experiment [2] is described as follows: Luminescence Cell-Based Dose Retest to Confirm Inhibitors of Cancer Stem Cells. [Related pubchem assays (depositor defined):AID2717, AID2721]. Particulars: Homo sapiens. The format is functional.
Experiment [3] in a line: cells. It is filed as functional, cell-based.
A short description of experiment [4]: cells. It is filed as functional, cell-based. The source holds these as a separate data set.
The target of a further experiment is Cytochrome P450 2C9 (Homo sapiens, UniProt P11712).
Cytochrome P450 2C9, sequence (P11712 whole entry): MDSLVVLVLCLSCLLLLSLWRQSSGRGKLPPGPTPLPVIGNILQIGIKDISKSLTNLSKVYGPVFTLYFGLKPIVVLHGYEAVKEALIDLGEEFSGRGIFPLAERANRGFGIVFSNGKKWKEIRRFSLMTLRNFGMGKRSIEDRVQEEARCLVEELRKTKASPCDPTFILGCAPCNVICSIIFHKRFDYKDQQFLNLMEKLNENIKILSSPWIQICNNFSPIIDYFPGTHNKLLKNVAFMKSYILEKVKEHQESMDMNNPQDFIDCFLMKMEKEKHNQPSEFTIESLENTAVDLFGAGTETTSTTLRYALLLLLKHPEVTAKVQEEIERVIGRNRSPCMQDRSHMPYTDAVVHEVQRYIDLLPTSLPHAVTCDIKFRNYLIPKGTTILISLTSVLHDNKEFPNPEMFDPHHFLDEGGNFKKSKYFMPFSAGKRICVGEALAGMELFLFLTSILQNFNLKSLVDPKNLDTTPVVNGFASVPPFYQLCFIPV
For the next experiment, the system named is Streptococcus. The experiment can be described thus: Group A Streptococcus viability loss, dose response, counter-screen for streptokinase expression inhibitor project, luminescence, BacTiterGlo (AID 1915).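 Further: potency for reduction of bacterial viability or growth.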 The format is functional, organism-based. (In general: A counterscreen serves to expose hits that act by an unwanted route or on another target.)
A further experiment concerns the target T2, Streptokinase A (Streptococcus pyogenes serotype M1, UniProt P10520).
T2 sequence (P10520 whole entry): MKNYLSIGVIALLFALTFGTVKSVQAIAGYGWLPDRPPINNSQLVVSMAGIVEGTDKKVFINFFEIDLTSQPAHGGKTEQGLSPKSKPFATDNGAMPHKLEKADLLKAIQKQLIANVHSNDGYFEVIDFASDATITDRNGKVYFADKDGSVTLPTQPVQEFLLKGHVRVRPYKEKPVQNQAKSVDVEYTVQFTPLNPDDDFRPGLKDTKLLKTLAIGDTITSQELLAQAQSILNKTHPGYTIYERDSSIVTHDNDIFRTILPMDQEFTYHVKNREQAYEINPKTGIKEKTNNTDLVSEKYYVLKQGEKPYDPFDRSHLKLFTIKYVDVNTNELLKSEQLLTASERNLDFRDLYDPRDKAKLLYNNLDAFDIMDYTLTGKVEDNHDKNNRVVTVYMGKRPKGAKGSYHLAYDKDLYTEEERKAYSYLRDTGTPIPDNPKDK
The experiment in a line: S. pyogenes streptokinase expression inhibitors, potency, dose response, plasminogen activation absorbance, OD405 (AID 1914).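 Further: secreted streptokinase activity via plasminogen activation per viability signal from cell pellet.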 The format is functional, Streptococcus pyogenes M1 GAS.

The nature of experiment [5]: HepG2 cell cytotoxicity, dose response, cytotoxicity control for Shn3 inhibitor project, CellTiter-Glo, cherry-picked (AID 624134). The format is functional, cell-based.
Experiment [6] is described as follows: Shn3 3'UTR reporter inhibitors, dose response, cell-based, Clone20 osteoblasts, firefly luciferase, cherry-picked (AID 624132).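 Further: firefly luciferase luminescence from reporter carrying the Shn3 3'UTR in osteoblasts.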 The format is functional.
The subject of experiment [7] is Streptococcus sp. 'group A'. The experiment in a line: growth inhibition of control SK(-) GAS strain, dose response, counter-screen for streptokinase expression inhibitor project, luminescence, kanamycin, BacTiterGlo, confirmation (AID 1900). It is filed as functional, organism-based.
Experiment [8] in a line: control 3'UTR Renilla luciferase suppression, dose response, counter-screen for Shn3 inhibitor project, cell-based, Clone20-Shn3RL, cherry-picked (AID 624133). The format is functional.
Experiment [9] is described as follows: cytotoxicity toward NIH3T3 fibroblasts, dose response, counter-screen, cell-based, ATP luminescence, mouse fibroblasts (AID 2010).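 Further: cells exposed to compound for about 90 hours before reading.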 It is filed as functional.
Experiment [10] in a line: inhibitors of intracellular T. cruzi replication, confirmation, NIH3T3 host cells, beta-gal luminescence (AID 2044).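 Further: intracellular parasites grown in NIH/3T3 mouse fibroblasts as host cells; luminescent beta-galactosidase reporter signal from transgenic T. cruzi replicating inside host cells; inhibitors lower the luminescence signal.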 It is filed as functional, cell-based.
A short description of experiment [11]: HEp-2 cell cytotoxicity, dose response, cytotoxicity control for RSV inhibitor project, HTS (AID 2410). It is filed as functional. The settings on record: human respiratory syncytial virus.
The next experiment has as its target Paired box protein Pax-8 (Homo sapiens, UniProt Q06710). The experiment can be described thus: inhibitors of PAX8-driven TPO luciferase reporter, dose response, RMG-I cells, cherry-pick (AID 687027).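 Further: luciferase reporter driven by Pax8 target thyroperoxidase promoter measured by SteadyGlo luminescence.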 The format is functional, cell-based. For orientation: In a reporter assay the amount or activity of a reporter protein is the signal.

One may read the AC50 as the concentration at which the activity in the assay is half-maximal. The term EC50 denotes the concentration giving half of the maximal effect. Usually CC50 stands for the concentration that lowers cell viability or growth by half.

Active and inactive are the calls of the source.

Paired box protein Pax-8, sequence (Q06710 whole entry): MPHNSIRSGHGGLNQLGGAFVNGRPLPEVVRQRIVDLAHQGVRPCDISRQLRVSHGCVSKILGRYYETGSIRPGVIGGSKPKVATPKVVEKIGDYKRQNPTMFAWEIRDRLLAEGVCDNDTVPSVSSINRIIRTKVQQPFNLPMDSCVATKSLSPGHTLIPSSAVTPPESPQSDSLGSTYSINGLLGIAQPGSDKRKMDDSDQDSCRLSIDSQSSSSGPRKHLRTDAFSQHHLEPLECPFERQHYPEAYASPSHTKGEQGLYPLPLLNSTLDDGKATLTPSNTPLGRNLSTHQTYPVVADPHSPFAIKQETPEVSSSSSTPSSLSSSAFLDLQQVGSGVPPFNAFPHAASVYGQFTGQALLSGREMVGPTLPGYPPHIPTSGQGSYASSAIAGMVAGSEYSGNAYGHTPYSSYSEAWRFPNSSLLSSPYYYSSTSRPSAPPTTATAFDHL

For the molecule `O=C(Nc1ccc(F)cc1)c1cccnc1`, the AC50 with INS1 is 14.5 µM (active). With `CO/C(O)=C1/C(C)=Nc2c(c(=O)n(C)c(=O)n2C)C1c1cccc(O)c1` (stereo not given), the EC50 in [1] is 27.8 µM (active). Consider `CC(C)(c1ccccc1)c1ccc(OCCN2CCCC2)cc1`, for which the concentration at half-maximal activity (AC50) in experiment [2] was 0.824 µM (active). As for `CCOc1ccc(C2N(c3ccc(F)cc3)C(=O)C3CCCN32)cc1OC` (stereo not given), in [1], the EC50 was > 195 µM (not active). On to `COc1ccccc1NC(=O)CN(C)S(=O)(=O)c1cccc2cccnc12`, for which the EC50 in the experiment “cells [3]” and in “cells [4]” was > 350 µM (not active) in each case. `OCc1nn2c(c1Br)NC(c1ccccc1)CC2C(F)(F)F` (stereo not given): the half-maximal effective concentration (EC50) in [1] is on record as > 195 µM (not active). `CCN(CC)C(=O)c1cc2cc([N+](=O)[O-])ccc2s1`: the AC50 at Cytochrome P450 2C9 is 17.8 µM (inconclusive). Besides, the concentration for a half-maximal effect (EC50) in [1] is listed as > 195 µM (not active). As for `CC(C)(C)c1csc(NNC(=O)c2ccc(Br)cc2)n1`, the half-maximal effective concentration (EC50) in “cells [3]” was > 350 µM (not active); with Streptococcus, > 150 µM (not active); on Streptokinase A, > 150 µM (not active); in “cells [4]” it was 21 µM (active).

Regarding `COc1cc(Nc2nc(-c3ccccc3)c3cc(C)ccc3n2)cc(OC)c1OC`, the AC50 was 5.05 µM (active) in experiment [2], 60.2 µM (active) in experiment [5] and 6.55 µM (active) in experiment [6].

For `CCO[C@@H]1OC(C(=O)NCc2ccccc2)=C[C@H](c2ccc3c(c2)OCO3)[C@H]1CCCO`, in experiment [1], the concentration giving a half-maximal response (EC50) is listed as > 195 µM (not active). Turning to `COc1ccc(OC)c(-c2cc(C(=O)N/N=C/c3cc(OC)c(OC)cc3OC)c3ccccc3n2)c1`, the EC50 in experiment [1] is on record as > 195 µM (not active). Take `Cc1cccc(N=C(S)NCC(C)CSc2ccc(Cl)cc2)c1` (stereo not given): in [2], the AC50 was 5.75 µM (active).

As for `CCn1nc(NS(=O)(=O)c2ccc(NC(C)=O)cc2)c2cc3cccc(C)c3nc21`, the 50% effective concentration (EC50) in the experiment “cells [3]” and in the experiment “cells [4]” was > 350 µM (not active) each time.

As to `Cc1nn(-c2ccccc2)c(C)c1/C=N/NC(=O)c1cc(-c2ccc(Br)s2)[nH]n1`, the EC50 in the experiment on Streptococcus is 11.8 µM (active); in experiment [7] it was 7.15 µM (active); at Streptokinase A it was > 150 µM (not active). The AC50 in experiment [2] is 0.434 µM (active). Take `CN(C)c1ccc(S(=O)(=O)NCC(=O)OCC(=O)Nc2cc(Cl)cc(Cl)c2)cc1[N+](=O)[O-]`: the EC50 in “cells [3]” and in the experiment “cells [4]” was > 350 µM (not active) in each case. In the case of `CC(C)(C)c1ccc(Oc2ccc(N)cc2)cc1`, in [2], the AC50 was 1.85 µM (active). `COc1cc(C(=O)NC2CCCc3c2cnn3-c2ccccc2F)cc(OC)c1OC` (stereo not given): the half-maximal activity concentration (AC50) is 4.13 µM (active) in experiment [8], 6.29 µM (active) in experiment [5] and 0.781 µM (active) in experiment [6].

As to `CC(=O)c1c(N2CCN(CCO)CC2)nc(=S)n(-c2ccccc2)c1C`, the EC50 in [1] is on record as > 195 µM (not active). Still for that read-out and setting: the value for `CCCCN(C(=O)c1ccc([N+](=O)[O-])s1)c1c(N)n(CCCC)c(=O)[nH]c1=O` was > 195 µM (not active). For the molecule `Cc1cc(C)[n+](Cc2ccccc2)cc1C(N)=O`, the EC50 in “cells [3]” and in the experiment “cells [4]” was > 350 µM (not active) in each case. `CCN(CC)S(=O)(=O)c1ccc(C)c(NC(=S)N2CCN(C/C=C/c3ccccc3)CC2)c1`: the concentration at half-maximal activity (AC50) in experiment [8] was 2.53 µM (active); in [5] it was 67.5 µM (active); in experiment [6], 2.55 µM (active). Turning to `Cc1c(C(=O)C(=O)NCc2cccs2)c2ccccc2n1C`, the EC50 in [1] is > 195 µM (not active).

Take `O=C(COC(=O)Cc1ccsc1)NCC12CC3CC(CC(C3)C1)C2`: the EC50 in [1] was > 195 µM (not active).

On to `COc1ccc(OCC(=O)NNC(=S)NC(=O)c2ccc(Br)o2)cc1`, for which the AC50 was 12.4 µM (active) in experiment [8], > 70 µM (inactive) in experiment [5] and 5.27 µM (active) in experiment [6].

For `COc1ccc(OC)c(Nc2nc(NCCC(C)C)nc(N)c2[N+](=O)[O-])c1`, the EC50 in “cells [3]” and in the experiment “cells [4]” was > 350 µM (not active) in each case. With `Cc1cccc2[nH]c(CN(C)C(=O)C3CCC(=O)N(C4CC4)C3)nc12` (stereo not given), the concentration for a half-maximal effect (EC50) in “cells [3]” and in “cells [4]” was > 350 µM (not active) each time. In the case of `Cc1ccccc1OCC(=O)Nc1ccc(N2CCN(C)CC2)c(Cl)c1`, the 50% effective concentration (EC50) in the experiment “cells [3]” and in “cells [4]” was > 350 µM (not active) each time. As for `CC(=O)Nc1ccc(CN2CCC(CO)(CCOc3ccccc3)CC2)cc1`, the concentration giving a half-maximal response (EC50) in experiment [1] is listed as > 195 µM (not active). As for `COc1cccc(C(=O)CN2C(=O)C(C)(C)Oc3ccc(C(=O)N4CCOCC4)cc32)c1`, the EC50 in the experiment “cells [3]” and in the experiment “cells [4]” was > 350 µM (not active) each time. On to `Cc1ccc2nc(-c3ccccn3)c(Nc3ccccc3C)n2c1`, for which the EC50 was > 350 µM (not active) in “cells [3]”, 5.84 µM (active) in experiment [9], 1.74 µM (active) in experiment [10] and 18.6 µM (active) in “cells [4]”. Moreover, the AC50 was 5.42 µM (active) in experiment [2] and 6.06 µM (active) in the experiment on INS1. As to `O=C(NCc1cccnc1)Nc1ccc([N+](=O)[O-])cc1`, the AC50 in the experiment with INS1 was 11.8 µM (active).

On to `C/C(=N\NC1=NCCN1)c1ccc(N)c([N+](=O)[O-])c1`, for which, in experiment [1], the EC50 was > 195 µM (not active). For the molecule `CCCC(=O)C1=C(NCc2ccccc2)CC(C)(C)CC1=O`, the EC50 in the experiment “cells [3]” and in “cells [4]” was > 350 µM (not active) each time. As to `COC(=O)c1sccc1S(=O)(=O)Nc1ccc(N2CCCCC2)cc1`, the half-maximal activity concentration (AC50) in the experiment on INS1 was 29 µM (active).

Take `COc1ccc(C(=O)Nc2ccc(Nc3ccccc3)cc2)cc1[N+](=O)[O-]`: in experiment [11], the cytotoxic concentration (CC50) is 12.2 µM (active). The AC50 in experiment [2] is 2.69 µM (active). `O=C(O)COc1ccccc1/C=N/NC(=O)c1ccc2c(c1)OCCO2`: the EC50 in [1] is recorded as > 195 µM (not active). With `O=S(=O)(Nc1ccc(-n2cccc2)cc1)c1ccc(Cl)c(Cl)c1`, the EC50 in the experiment with Streptococcus is 7.58 µM (active); in [7], 7.42 µM (active); on Streptokinase A, 11.3 µM (inconclusive). For the same molecule, the AC50 in experiment [2] was 4.84 µM (active). For the molecule `CC(=O)c1cccc(NS(=O)(=O)c2ccc(N/C=C/C(=O)c3ccc(F)cc3)cc2)c1`, the AC50 with INS1 is 4.36 µM (active). Regarding `O=S(=O)(c1ccccc1F)N1CC[C@@H]2[C@@H](CO)Nc3ccc(C4=CCCCC4)cc3[C@@H]21`, at Paired box protein Pax-8, the AC50 is 10.5 µM (active). On to `O=C1C=C(c2ccnc3cc(Cl)ccc23)C[C@@H](c2ccc3c(c2)OCO3)C1`, for which the half-maximal activity concentration (AC50) was 0.312 µM (active) in experiment [8], 27.6 µM (active) in [5] and 1.36 µM (active) in [6].
